From patent publication US7820624B2, “Peptide ligands” (ICH Productions Limited, priority 2003, dated 2010)

What was measured:
HMEC-1 cells = experiment: Adenoviral transduction of HMEC-1 cells; assay type: cell-based, human; details: 10,000 particles per cell in OptiMEM
Protocol: (§1) Day 6 dendritic cells (see Example 1(v) above), or mouse bone marrow derived dendritic cells or mouse Sca1+ve stem cells, see (i) and (ii) above, were plated at 5×10^4 cells per well in a 48 well plate in 500 μl complete medium and allowed to settle for 3 hours at 37° C. Transductions were carried out in complete media, with virus being added at 100,000 viral particles/cell for 24 hours. Cells were harvested by scraping, spun down at 650 g (2000 rpm) for 5 min, resuspended in 300 μl PBS, and kept on ice before analysis. Viral transduction as determined by percentage of GFP positive cells was measured by FACS analysis. To measure percentage viability, 10 μl of 7-amino-actinomycin D (7AAD; Sigma, Poole, Dorset) was added immediately prior to analysis. Viral transduction of macrophages was carried out at 10,000 particles/cell in medium containing 2.5% FCS. […] Cells were then washed twice in PBS, trypsinised, triplicate wells pooled, spun down at 350×g for 5 min and resuspended in 300 μl PBS before analysis by flow cytometry where cell viability was to be measured, 10 μl 7AAD was added just prior to analysis.
(§2) For transduction of these other cell types, cells were seeded overnight at 5×10^4 cells per well in 24 well plates in the appropriate media. […] Where cell viability was to be measured, 10 μl 7-amino-actinomycin D (7AAD; Sigma, Poole, Dorset) was added just prior to analysis. […]

[1] = tested on: human monocyte-derived immature dendritic cells; assay type: cell-based; details: 100,000 viral particles/cell
Source text: Ad5 particles with the DC-binding peptides incorporated into the HI loop of the fibre protein were produced essentially as described previously ^12. Complementary oligonucleotides encoding the peptide sequences SHVKLNS [SEQ. ID. NO.:29] (5′ CC GGAAGCCACGTGAAGCTGAACAGCG 3′ [SEQ. ID. NO.:58] and 5′ CC GGCGCTGTTCAGCTTCACGTG GCTT 3′[SEQ. ID. NO.:59]) or APSNSTA [SEQ. ID. NO.:15] (5′ CC GGAGCCCCCAGCAACAGCACCGCCG 3′ [SEQ. ID. NO.:61] and 5′ CC GGCGGCGGTGCTGTTGCTGGG GGCT 3′ [SEQ. ID. NO.:62]) were synthesized (Operon Technologies, Alameda Calif. U.S.A.). The oligo pairs were then kinased, annealed, and ligated into the unique BspE1 site of pDV137 ^12, an expression construct encoding an Ad5 fibre protein with a double point mutant (KO1) which blocks CAR binding and a linker/restriction site in the HI loop, to create pDV178 (SHVKLNS) and pDV179 (APSNSTA). Following sequence confirmation, the plasmids were used to trans-complement the fibre-deleted vector Ad5.GFP.δF^18 by transient transfection into 293 cells as described ^19. Viral particles were purified by freeze/thaw lysis and CsCl gradient centrifugation and dialyzed into 40 mM TRIS-pH 8.1/0.9% NaCl/10% glycerol and stored at −80° C. Virus was quantified by protein assay (BioRad, Hercules Calif., U.S.A.) against BSA standards and using the relation 1 μg viral protein=4×10^9 viral particles.
Retargeted adenoviruses carrying a peptide A or B were used for the transduction experiments described below. Wild type adenovirus type 5 and type 5 adenovirus having a KO1 fibre, all supplied by Dr Dan von Seggern, and as described in Nicklin 2001 Mol Ther 2001 Dec.; 4(6):534-42), were used as controls.
(§3) Day 6 dendritic cells (see Example 1(v) above), or mouse bone marrow derived dendritic cells or mouse Sca1+ve stem cells, see (i) and (ii) above, were plated at 5×10^4 cells per well in a 48 well plate in 500 μl complete medium and allowed to settle for 3 hours at 37° C. Transductions were carried out in complete media, with virus being added at 100,000 viral particles/cell for 24 hours. Cells were harvested by scraping, spun down at 650 g (2000 rpm) for 5 min, resuspended in 300 μl PBS, and kept on ice before analysis. Viral transduction as determined by percentage of GFP positive cells was measured by FACS analysis. To measure percentage viability, 10 μl of 7-amino-actinomycin D (7AAD; Sigma, Poole, Dorset) was added immediately prior to analysis. Viral transduction of macrophages was carried out at 10,000 particles/cell in medium containing 2.5% FCS. For other cell types, cells were seeded overnight at 5×10^4 cells per well in 24-well plates in the appropriate media. Adenovirus was added in OptiMEM at 10,000 viral particles/cell, 1 ml per well in triplicate and incubated for 24 h at 37° C. Cells were then washed twice in PBS, trypsinised, triplicate wells pooled, spun down at 350×g for 5 min and resuspended in 300 μl PBS before analysis by flow cytometry where cell viability was to be measured, 10 μl 7AAD was added just prior to analysis.
Cells were pooled from three separate transduction experiments for the calculation of results.

[2] = tested on: mouse Sca1-positive stem cells; experiment: Adenoviral transduction of mouse Sca1+ve stem cells; assay type: cell-based
Protocol: Mouse bone marrow cells were isolated as above and Sca1+ve cells were isolated using MACs Sca1 microbeads (Miltenyi Biotec, Bisley, U.K.). These cells were plated at 7×10^4 cells/500 μl in RPMI with Glutamax-1 containing 30% FCS and penicillin/streptomycin and the following cytokines murine SCF (50 ng/ml; Preprotech, London, UK), IL-6 (20 ng/ml; Preprotech, London, UK) and Flt3-L (10 ng/ml) (R&D Systems, Oxford, U. K.).
as §1, with “analysis.” for “analysis. To measure percentage viability, 10 μl of 7-amino-actinomycin D (7AAD; Sigma, Poole, Dorset) was added immediately prior to analysis. Viral transduction of macrophages was carried out at 10,000 particles/cell in medium containing 2.5% FCS.”

HepG2 cells = experiment: Adenoviral transduction of HepG2 cells; assay type: cell-based, human; details: 10,000 particles per cell in OptiMEM
Protocol: as §1, §2

1HAEo- cells = experiment: Adenoviral transduction of 1HAEo- cells; assay type: cell-based, human; details: 10,000 particles per cell in OptiMEM
Protocol: as §1, §2

[3] = tested on: primary mouse dendritic cells; experiment: Adenoviral transduction of mouse dendritic cells; assay type: cell-based; details: bone marrow derived DCs
Protocol: Mouse dendritic cells were prepared from whole bone marrow flushed from the marrow cavities of the femur and tibia of 5-7 week old A/J mice and cultured in Hepes buffered RPMI+Glutamax (InVitrogen, Paisley, U. K.) supplemented with 10% FCS, penicillin/streptomycin and 20 ng/ml recombinant GM-CSF. Cytokines were added to the same concentration on day 3 and the dendritic cells isolated from the floating cell fraction by MACs CD11c microbeads (Miltenyi Biotec, Bisley, U. K.) on day 6.
as §1, with “analysis.” for “analysis. To measure percentage viability, 10 μl of 7-amino-actinomycin D (7AAD; Sigma, Poole, Dorset) was added immediately prior to analysis. Viral transduction of macrophages was carried out at 10,000 particles/cell in medium containing 2.5% FCS.”

[4] = tested on: day 6 immature dendritic cells; experiment: Maturation of adenovirus-transduced dendritic cells in response to LPS (marker flow cytometry); assay type: cell-based, human; details: LPS 50 ng/ml; virus 100,000 particles per cell
Protocol: Day 6 immature dendritic cells were infected with retargeted Ad or Ad5 at 100,000 particles per cell in complete medium for 24 hours, with E. coli 026:B6 lipopolysaccharide (LPS) added following 3 hours incubation at a concentration of 50 ng/ml. As controls, dendritic cells were either incubated in complete medium for 24 hours or matured by the addition of LPS in complete medium for 24 hours, In all samples IL-4 and GM-CSF were present in the complete medium at 25 ng/ml and 100 ng/ml respectively. Cells were then phenotyped by staining as follows: a minimum of 5×10^4 cells in a volume of less than 2 ml medium were added to the recommended amount of antibody and incubated for 20 min on ice. 2 ml of ice-cold PBS was added before centrifugation at 300×g for 5 min at 4° C. The supernatant was flicked off and the pellet resuspended in 300 μl ice cold PBS. Cells from each sample were stained with antibodies to HLA-DR, CD40, CD80, CD83, CD86 and isotype matched control antibodies. Where cell viability was also measured, […] of 7AAD was added immediately prior to analysis. Cells were analysed by flow cytometry using a Epics XL (Beckman Coulter, High Wycombe, UK.) and the EXPO32 analysis software (Beckman Coulter).

[5] = tested on: human monocyte-derived primary macrophages; experiment: Adenoviral transduction of primary macrophages; assay type: cell-based; details: 10,000 viral particles/cell in 2.5% serum
Protocol: as §3
10 mls of peripheral blood were diluted 1:1 with HBSS then layered on Lymphoprep (Nycomed), spun at 750 g for 30 min and purified […] were isolated from the interface. Excess Lymphoprep was removed by spinning cells down at 250 g for 10 min and any platelets present were removed by washing in HBSS twice, spinning the cells at 1200 rpm for 10 min each time. Monocytes were then isolated using MACs CD14 microbeads as described in the manufacturer's protocol. The mononuclear cells were plated into a […] flask in 10% FCS, RPMI for 1-2 hours (1 flask per 10 ml blood) before removing the supernatant and adding fresh 10% FCS, RPMI+10 ng/ml MCSF (macrophage colony stimulating factor). Half the medium was replaced with fresh 10% FCS, RPMI+MCSF (10 ng/ml) after 48 hours and the cells were used at day 6, harvesting by scraping the cells from the well.
Viral transduction was carried out at 10,000 particles/cell in medium containing 2.5% FCS. Viral transduction as determined by percentage of GFP positive cells was measured by FACS analysis. Cells were pooled from three separate transduction experiments for the calculation of results.

Neuro-2A cells = experiment: Adenoviral transduction of Neuro-2A cells; assay type: cell-based, mouse; details: 10,000 particles per cell in OptiMEM
Protocol: as §1, §2

## APSNSTA (Synthetic peptide binding to dendritic cells)
HMEC-1 cells
  Transduction, % cells transduced: 94.2%
[1]; complete medium, 24 hours, donor A
  Transduction (% GFP positive cells), donor A: 65.1%
[1]; complete medium, 24 hours, donor B
  Transduction (% GFP positive cells), donor B: 78.9%
[1]; donor A, 7AAD
  Percentage cell death, donor A: (6.6) %
[1]; donor B, 7AAD
  Percentage cell death, donor B: (11.6) %
[2]
  Transduction efficiency: 5.4%
HepG2 cells
  Transduction, % cells transduced: 79.7%
1HAEo- cells
  Transduction, % cells transduced: 79%
[3]
  Transduction efficiency: 54.1%
[4]
  CD40 positive cells: 9.8%
  CD80 positive cells: 10.7%
  CD83 positive cells: 18.0%
  CD86 positive cells: 96.7%
  HLA-DR positive cells: 72.9%
[5]
  Transduction, % cells transduced: 34.6%
[5]; listed as B
  Transduction, % cells transduced: 34.6%
Neuro-2A cells
  Transduction, % GFP-positive cells: 53.7%
